{"source": "paper PMC4556985", "about": "“Inhibitors of ORAI1 Prevent Cytosolic Calcium-Associated Injury of Human Pancreatic Acinar Cells and Acute Pancreatitis in 3 Mouse Models” (Gastroenterology, 2015)", "target": "T1, ORAI1 (Homo sapiens, UniProt Q96D31)", "T1 construct": "with STIM1 (human, co-expressed)", "T1 sequence (Q96D31 whole entry)": "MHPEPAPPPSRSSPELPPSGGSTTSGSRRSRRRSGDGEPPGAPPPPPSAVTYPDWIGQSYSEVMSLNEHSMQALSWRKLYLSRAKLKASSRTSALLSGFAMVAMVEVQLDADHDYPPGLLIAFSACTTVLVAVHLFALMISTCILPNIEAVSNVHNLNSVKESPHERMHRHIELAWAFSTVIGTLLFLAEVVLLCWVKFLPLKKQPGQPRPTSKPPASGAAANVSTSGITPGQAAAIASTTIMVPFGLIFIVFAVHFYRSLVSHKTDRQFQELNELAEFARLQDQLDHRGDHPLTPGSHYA", "T1 sequence (Q13586 23-685 partner)": "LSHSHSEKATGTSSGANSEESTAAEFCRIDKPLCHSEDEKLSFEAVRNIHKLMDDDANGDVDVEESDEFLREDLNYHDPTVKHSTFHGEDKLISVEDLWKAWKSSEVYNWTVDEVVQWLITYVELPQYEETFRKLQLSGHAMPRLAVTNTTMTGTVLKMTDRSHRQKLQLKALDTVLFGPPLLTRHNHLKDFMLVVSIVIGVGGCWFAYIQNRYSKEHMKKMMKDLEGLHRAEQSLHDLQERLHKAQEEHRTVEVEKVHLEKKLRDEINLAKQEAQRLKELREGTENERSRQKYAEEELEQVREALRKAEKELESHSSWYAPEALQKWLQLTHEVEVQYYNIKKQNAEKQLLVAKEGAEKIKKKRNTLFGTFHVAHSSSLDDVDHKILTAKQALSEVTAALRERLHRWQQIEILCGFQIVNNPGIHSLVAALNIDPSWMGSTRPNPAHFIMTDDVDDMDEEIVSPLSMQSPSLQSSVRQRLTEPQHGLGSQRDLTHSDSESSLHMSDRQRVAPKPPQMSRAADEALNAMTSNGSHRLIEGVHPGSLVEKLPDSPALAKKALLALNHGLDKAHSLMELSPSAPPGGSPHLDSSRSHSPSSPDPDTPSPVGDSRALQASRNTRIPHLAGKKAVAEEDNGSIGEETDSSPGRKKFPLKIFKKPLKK", "assay": "whole-cell patch clamp of ICRAC in HEK […] cells stably expressing hORAI1/hSTIM1", "assay_type": "cell-based", "data": [{"compound": "Cc1cccc(F)c1C(=O)Nc1cnc(-c2cc3c(cc2Cl)OC(F)(F)O3)cn1", "note": "[CM_128]", "values": [{"measurement": "IC50", "value": "~100", "unit": "nM"}]}]}
